Source: article PMC9171976 (Frontiers in Nutrition, 2022)
Values belong to the molecule of their own block, whether it stands above or below them.

Assays:
[1] = rats; single oral dose of green tea extract 400 mg/kg 30 min before simvastatin; cited from earlier work
[2] = male, human, in vivo, 20 mg
[3] = clinical; conditions: male, human, in vivo, 20 mg
[4] = Simvastatin-herb pharmacokinetic interaction study, plasma simvastatin lactone and acid by LC-MS/MS; conditions: male, human, po, 20 mg
[5] = test system: human OATP1B1; parameters: method as in PMID 32006472; conditions: low concentration; CHO cells; cited from earlier work
[6] = parameters: method as in PMID 24419562; conditions: healthy volunteers; cited from earlier work
[7] = same extract given daily for 2 weeks and simultaneously with the dose of rosuvastatin; cited from earlier work

AUC0–24h [2]: 12.1 (54.6) h⋅μg/L
AUC(0-t) ([3]; AUC0–24h): 16.1 ng·h/mL
half-life ([3]; po, T1/2): 3.94 h
Tmax ([3]; po, Tmax): 3.5 h
SMILES: CCC(C)(C)C(=O)O[C@H]1C[C@@H](C)C=C2C=C[C@H](C)[C@H](CC[C@@H](O)C[C@@H](O)CC(=O)O)[C@H]21 [Simvastatin acid, simvastatin acid]
Increase of AUC0–6h with green tea extract [1]: 2.0 fold

half-life ([4]; T1/2, 18 subjects, simvastatin 20 mg with green tea extract, geometric mean (% CV)): 4.96 h
half-life ([4]; T1/2, 18 subjects, simvastatin 20 mg with soy isoflavones, geometric mean (% CV)): 4.51 h
half-life ([4]; T1/2, SLCO1B1 521CC (n = 4), after green tea): 3.98 h
half-life ([4]; T1/2, SLCO1B1 521CC (n = 4), after soy isoflavones): 3.9 h
half-life ([4]; T1/2, SLCO1B1 521CC (n = 4), baseline): 4.83 h
half-life ([4]; T1/2, SLCO1B1 521TC (n = 8), after green tea): 4.72 h
half-life ([4]; T1/2, SLCO1B1 521TC (n = 8), after soy isoflavones): 4.71 h
half-life ([4]; T1/2, SLCO1B1 521TC (n = 8), baseline): 4.54 h
half-life ([4]; T1/2, SLCO1B1 521TT (n = 6), after green tea): 6.15 h
half-life ([4]; T1/2, SLCO1B1 521TT (n = 6), after soy isoflavones): 4.71 h
SMILES: CCC(C)(C)C(=O)O[C@H]1C[C@@H](C)C=C2C=C[C@H](C)[C@H](CC[C@@H]3C[C@@H](O)CC(=O)O3)[C@H]21 [Simvastatin lactone, simvastatin]
Effect of green tea extract on t1/2 [1]: no effect

SMILES: O=C(O[C@@H]1Cc2c(O)cc(O)cc2O[C@@H]1c1ccc(O)c(O)c1)c1cc(O)c(O)c(O)c1 [epicatechin gallate (ECG), epicatechin gallate]
Stimulating effect on OATP1B1-mediated DCF uptake [5]: about 160%

SMILES: CC(C)(C)NCC(O)COc1cccc2c1CC(O)C(O)C2 (stereo not shown) [nadolol]
Reduction of systemic exposure with green tea taken as a drink [6]: 85%

SMILES: CC(C)c1nc(N(C)S(C)(=O)=O)nc(-c2ccc(F)cc2)c1/C=C/[C@@H](O)C[C@@H](O)CC(=O)O [rosuvastatin]
Reduction of systemic exposure with green tea extract [7]: about 20%
